In general, EC50 refers to the concentration giving half of the maximal effect. Lower therefore signals higher potency in that assay.

Consider 16 compounds from US11479539B2, “Small molecule modulators of the BTB domain of Keap1” (MedImmune Limited, priority 2017, dated 2022).

Molecules are shown by their SMILES.

The target of this test is Keap1 (Homo sapiens (Human), UniProt Q14145). The test is described as follows: HEK293 ARE luciferase assay. The test is classed as cell-based. Conditions: HEK-293 ARE firefly luciferase transiently transfected cells; 18 h incubation; mean of 1 to 20 individual measurements. The method in brief: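 Transiently transfected HEK-293 ARE firefly luciferase cells (10,000/well, DMEM with 10% FCS) exposed to compound, 10-point curve from 100 μM top, 0.3% DMSO, 18 h at 37 °C. SteadyGlo luminescence; activity normalised to 30 μM tBHQ (stimulator) and DMSO (neutral), activity threshold 50; means of 1-20 measurements.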
Chain of Keap1 (Q14145 whole entry): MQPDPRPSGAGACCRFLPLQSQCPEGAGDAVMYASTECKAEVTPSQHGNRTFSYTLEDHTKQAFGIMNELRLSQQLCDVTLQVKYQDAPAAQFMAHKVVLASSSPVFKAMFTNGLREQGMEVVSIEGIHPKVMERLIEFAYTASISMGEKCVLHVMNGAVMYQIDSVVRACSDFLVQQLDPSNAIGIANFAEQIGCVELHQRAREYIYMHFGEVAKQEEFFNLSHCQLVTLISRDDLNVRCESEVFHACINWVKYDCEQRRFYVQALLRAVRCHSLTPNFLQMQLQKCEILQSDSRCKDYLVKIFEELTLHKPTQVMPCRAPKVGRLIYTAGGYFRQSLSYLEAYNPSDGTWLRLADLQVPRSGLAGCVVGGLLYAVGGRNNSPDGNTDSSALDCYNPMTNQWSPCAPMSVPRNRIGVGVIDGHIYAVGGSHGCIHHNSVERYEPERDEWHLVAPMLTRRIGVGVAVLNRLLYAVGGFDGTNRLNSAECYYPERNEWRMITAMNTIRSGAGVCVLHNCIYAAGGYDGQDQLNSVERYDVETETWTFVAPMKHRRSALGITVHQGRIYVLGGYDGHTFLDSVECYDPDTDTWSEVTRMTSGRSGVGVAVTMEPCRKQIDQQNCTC
In turn, `COC1(c2cccc(-c3ccnn3C)n2)C=C(C#N)C(=O)C2(CC2)C1` (stereo not shown) [Compound 129, 7-methoxy-7-[6-(1-methyl-1H-pyrazol-5-yl)pyridin-2-yl]-4-oxospiro[2.5]oct-5-ene-5-carbonitrile] showed an EC50 of 136 nM. As for `COC1(c2cccc(-c3c(C)noc3C)n2)C=C(C#N)C(=O)C2(CC2)C1` (stereo not shown) [Compound 130, 7-[6-(3,5-dimethyl-1,2-oxazol-4-yl)pyridin-2-yl]-7-methoxy-4-oxospiro[2.5]oct-5-ene-5-carbonitrile], the figure is 153 nM; as for `COC1(c2cncc(C)n2)C=C(C#N)C(=O)C2(CC2)C1` (stereo not shown) [Compound 131, 7-methoxy-7-(6-methylpyrazin-2-yl)-4-oxospiro[2.5]oct-5-ene-5-carbonitrile], 464 nM; as for `COC1(c2ncccc2C(F)F)C=C(C#N)C(=O)C2(CC2)C1` (stereo not shown) [Compound 132, 7-[3-(difluoromethyl)pyridin-2-yl]-7-methoxy-4-oxospiro[2.5]oct-5-ene-5-carbonitrile], 150 nM.

In the case of `COC1(c2ncccc2C(F)(F)F)C=C(C#N)C(=O)C2(CC2)C1` (stereo not shown) [Compound 133, 7-methoxy-4-oxo-7-[3-(trifluoromethyl)pyridin-2-yl]spiro[2.5]oct-5-ene-5-carbonitrile], the response was half-maximal at 76 nM (EC50). The result for `COC1(c2ccccn2)C=C(C#N)C(=O)C2(CC2)C1` (stereo not shown) [Compound 135, 7-methoxy-4-oxo-7-(pyridin-2-yl)spiro[2.5]oct-5-ene-5-carbonitrile] reads 244 nM; that for `COC1(c2ncc(F)cc2C)C=C(C#N)C(=O)C(C)(C)C1` (stereo not shown) [Compound 137, 3-(5-fluoro-3-methylpyridin-2-yl)-3-methoxy-5,5-dimethyl-6-oxocyclohex-1-ene-1-carbonitrile], 47 nM; that for `COC1(c2sccc2C)C=C(C#N)C(=O)C(C)(C)C1` (stereo not shown) [Compound 139, 3-methoxy-5,5-dimethyl-3-(3-methylthiophen-2-yl)-6-oxocyclohex-1-ene-1-carbonitrile], 381 nM. The result for `COC1(c2nc(C)cs2)C=C(C#N)C(=O)C2(CC2)C1` (stereo not shown) [Compound 140, 7-methoxy-7-(4-methyl-1,3-thiazol-2-yl)-4-oxospiro[2.5]oct-5-ene-5-carbonitrile] reads 140 nM; that for `COC1(c2nc(C(F)(F)F)cs2)C=C(C#N)C(=O)C(C)(C)C1` (stereo not shown) [Compound 141, 3-methoxy-5,5-dimethyl-6-oxo-3-[4-(trifluoromethyl)-1,3-thiazol-2-yl]cyclohex-1-ene-1-carbonitrile], 335 nM.

In turn, `COC1(c2nc(C)cs2)C=C(C#N)C(=O)C(C)(C)C1` (stereo not shown) [Compound 142, 3-methoxy-5,5-dimethyl-3-(4-methyl-1,3-thiazol-2-yl)-6-oxocyclohex-1-ene-1-carbonitrile] came in with an EC50 of 60 nM. As for `CCOC1(c2ncccc2C(F)(F)F)C=C(C#N)C(=O)C(C)(C)C1` (stereo not shown) [Compound 143, 3-ethoxy-5,5-dimethyl-6-oxo-3-[3-(trifluoromethyl)pyridin-2-yl]cyclohex-1-ene-1-carbonitrile], the figure is 139 nM; as for `COC1(c2nccs2)C=C(C#N)C(=O)C(C)(C)C1` (stereo not shown) [Compound 144, 3-methoxy-5,5-dimethyl-6-oxo-3-(1,3-thiazol-2-yl)cyclohex-1-ene-1-carbonitrile], 389 nM; as for `CCOC1(c2ccc(F)cn2)C=C(C#N)C(=O)C(C)(C)C1` (stereo not shown) [Compound 145, 3-ethoxy-3-(5-fluoropyridin-2-yl)-5,5-dimethyl-6-oxocyclohex-1-ene-1-carbonitrile], 65 nM.

With `COC1(c2ncccc2OC(F)(F)F)C=C(C#N)C(=O)C(C)(C)C1` (stereo not shown) [Compound 147, 3-methoxy-5,5-dimethyl-6-oxo-3-[3-(trifluoromethoxy)pyridin-2-yl]cyclohex-1-ene-1-carbonitrile], the EC50 amounted to 22 nM. This EC50 is about 3-fold lower than that of the compound before. The result for `COC1(c2ncccc2C(F)(F)F)C=C(C#N)C(=O)C2(CCCC2)C1` (stereo not shown) [Compound 148, 9-methoxy-6-oxo-9-[3-(trifluoromethyl)pyridin-2-yl]spiro[4.5]dec-7-ene-7-carbonitrile] reads 252 nM.
